What was measured:
[1] = system: Candida albicans ATCC®10231™; experiment: MIC determination, broth microdilution, GOX+LPO with potentiator candidate; format: cell-based; details: C. albicans; enhancer 0.01%
[2] = system: IL-6; experiment: IL-6 secretion by THP-1-derived macrophages, ELISA; format: cell-based; details: 24 h
Procedure: First, the effect on the secretion of these mediators by macrophages was evaluated. Secondly, the direct neutralization of already secreted mediators was evaluated. Both were measured by the state-of-the-art ELISA technique. First, the secretion of the pro-inflammatory mediator representatives IL-6, TNFa and MMP9 in cell culture supernatants by THP-1 (a monocytic cell line) after its differentiation into macrophages were measured. In brief, THP-1 cells were seeded at a density of 3×10^5 cells/cm^2 in a 6-well plate in the presence of 160 nM of phorbol-12-myristate-13-acetate (PMA) to induce macrophage differentiation. Differentiation was further conducted for 48 h. […] Supernatants were collected and centrifuged at 150 g for 5 min to remove cell debris and were kept at −20° C. before being processed for ELISA. IL-6, TNFa and MMP9 ELISA kits were purchased from BioTechne and the experiment was performed according to manufacturer's instructions. Briefly, 96-well plates were coated with capture antibodies overnight at room temperature. […] After several washing steps, the corresponding detection antibody, which is coupled to biotin, was incubated for 2 h. […] The reaction was stopped by the addition of sulphuric acid and absorbance at 450 nm was read with a plate reader. Absorbance is proportional to the concentration of analyte present in the medium, which was calculated based on a standard curve realized with recombinant IL-6, TNFa and MMP9.

CC[C@H](C)[C@H](N)C(=O)O [Isoleucine, isoleucine]
MIC: GOX+LPO enzyme solution needed to completely inhibit growth [1]: 0.0000391 % (v/v) | increase in MIC compared to reference [1]: 4 × | increase in MIC compared to the enhancing molecule guaiacol [1]: 2 × | additional decrease in IL-6 secretion by macrophages vs GOX+LPO (1:1) alone ([2]; isoleucine 0.0025%): 7.6% | additional decrease in IL-6 secretion by macrophages vs GOX+LPO (1:1) alone ([2]; isoleucine 0.05%): 20.6% | additional decrease in IL-6 secretion by macrophages vs GOX+LPO (1:1) alone ([2]; isoleucine 0.5%): 33.6%
